The results in this text go back to patent US20060293317A1, “Use of non-steroidal progesterone receptor modulators” (priority 2005, published 2006).

A word on the pIC50: it is −log10 of the IC50, conventionally taken in molar units.

Each structure is given as a SMILES string. pIC50: −log10 of the molar value.

The assay deals with T1, PR-B progesterone receptor (Homo sapiens, UniProt P06401).
T1 sequence (P06401 1-933): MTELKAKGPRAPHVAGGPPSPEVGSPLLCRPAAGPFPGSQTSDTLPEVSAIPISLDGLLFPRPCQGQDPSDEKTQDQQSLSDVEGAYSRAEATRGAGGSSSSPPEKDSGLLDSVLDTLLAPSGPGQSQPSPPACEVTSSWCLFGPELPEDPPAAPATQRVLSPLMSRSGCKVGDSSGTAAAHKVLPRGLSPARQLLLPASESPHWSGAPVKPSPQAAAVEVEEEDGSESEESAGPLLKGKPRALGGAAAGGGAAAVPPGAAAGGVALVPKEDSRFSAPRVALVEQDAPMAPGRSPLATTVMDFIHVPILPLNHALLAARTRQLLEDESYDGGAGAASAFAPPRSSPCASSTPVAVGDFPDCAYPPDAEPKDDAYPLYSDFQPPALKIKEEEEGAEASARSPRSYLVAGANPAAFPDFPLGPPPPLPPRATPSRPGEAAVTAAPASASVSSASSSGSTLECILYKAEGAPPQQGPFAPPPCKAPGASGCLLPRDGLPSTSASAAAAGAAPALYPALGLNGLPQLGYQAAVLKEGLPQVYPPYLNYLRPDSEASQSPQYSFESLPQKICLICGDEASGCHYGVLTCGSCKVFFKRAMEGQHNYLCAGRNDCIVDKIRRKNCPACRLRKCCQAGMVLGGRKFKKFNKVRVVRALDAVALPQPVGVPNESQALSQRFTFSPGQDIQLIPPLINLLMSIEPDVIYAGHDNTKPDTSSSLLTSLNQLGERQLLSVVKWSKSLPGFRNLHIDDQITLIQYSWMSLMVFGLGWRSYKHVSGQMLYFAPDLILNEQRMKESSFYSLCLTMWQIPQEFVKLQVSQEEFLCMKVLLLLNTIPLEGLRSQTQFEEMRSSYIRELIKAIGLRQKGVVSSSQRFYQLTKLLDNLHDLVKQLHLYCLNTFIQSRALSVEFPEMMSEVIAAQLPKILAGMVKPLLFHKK
In words: Antagonism at the PR-B progesterone receptor (transactivation assay). The assay is classed as cell-based. The method, then:
Antagonism at the PR-B Progesterone Receptor
The transactivation assay is carried out as described in WO 02/054064.

As to `Cc1noc(=O)c2ccc(NC(=O)C(O)(Cc3ccccc3)CC(C)(C)c3ccccc3)cc12` (centres unmarked) [compound 88], the “Antagonistic activity Efficacy” value (transactivation assay as in WO 02/054064) came to 100%. The negative-log IC50 (pIC50) (transactivation assay as in WO 02/054064, read-out: Antagonistic activity IC50) is 9.52.
